We go through 50 molecules from US12012403B2, “Aryl sulfonyl compounds as CCR6 inhibitors” (CHEMOCENTRYX, INC., priority 2021, dated 2024).

SMILES strings stand for the structures.

The assay addresses T1, human CCR6 (Homo sapiens, UniProt P51684).
T1 construct: expressed in transfected cells; host or cells: Ba/F3 cells (murine pro-B line), hCCR6-transfected, CMV promoter, sodium butyrate induction
T1 sequence (P51684 1-374): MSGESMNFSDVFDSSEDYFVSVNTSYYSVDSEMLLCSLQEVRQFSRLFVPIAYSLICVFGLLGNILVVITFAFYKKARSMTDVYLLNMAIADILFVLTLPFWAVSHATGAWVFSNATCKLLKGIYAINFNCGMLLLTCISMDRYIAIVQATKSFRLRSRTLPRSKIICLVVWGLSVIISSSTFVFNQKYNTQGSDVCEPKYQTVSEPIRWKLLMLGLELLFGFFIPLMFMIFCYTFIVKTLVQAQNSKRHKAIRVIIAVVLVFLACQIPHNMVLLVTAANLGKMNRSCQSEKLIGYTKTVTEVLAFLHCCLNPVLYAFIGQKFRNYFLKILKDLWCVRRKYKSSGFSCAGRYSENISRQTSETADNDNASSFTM
Nature of the assay: Migration (chemotaxis) assay, hCCR6-transfected Ba/F3 cells toward CCL20. Format: cell-based. The settings on record: hCCR6-transfected Ba/F3 cells in human serum; recombinant human CCL20 10 nM; 37° C. 45 minutes; read-out: Potency (IC50 value in the migration assay). The source says:
A chemotaxis assay can be used to determine the efficacy of potential receptor antagonists at blocking the migration mediated through chemokine receptors, such as CCR6. This assay is routinely performed using the ChemoTX® microchamber system with a 5-μm pore-sized polycarbonate membrane. Chemokine receptor-expressing cells are required for such an assay. In this case, Ba/F3 cells (Palacios et al., Nature, 309:126, 1984) transfected with the gene for human CCR6 under control of the CMV promotor were used. To begin such an assay, hCCR6-transfected Ba/F3 cells are first grown for 24 hr in medium supplemented with sodium butyrate, which increases CCR6 transcription via the CMV promotor. The prepared Ba/F3 cells, are collected by centrifugation at 400×g at room temperature, then suspended at 4 million/ml in human serum. The compound being tested is serially diluted from a maximum final concentration of 10 μM (or an equivalent volume of its solvent (DMSO)) and is then added to the cell/serum mixture. Separately, recombinant human CCL20 (MIP-3α/LARC) at its EC50 concentration (10 nM) is placed in the lower wells of the ChemoTX® plate. The 5-μm (pore size) polycarbonate membrane is placed onto the plate, and 20 μL of the cell/compound mixture is transferred onto each well of the membrane. The plates are incubated at 37° C. for 45 minutes, after which the polycarbonate membranes are removed and 5 μl of the DNA-intercalating dye CyQUANT (Invitrogen, Carlsbad, CA) is added to the lower wells. The amount of fluorescence, corresponding to the number of migrated cells, is measured using a Spectrafluor Plus plate reader (TECAN, San Jose, CA).
Take `CC(C)(C)[Si](C)(C)OCCN1Cc2ccc(-c3ccc(S(=O)(=O)N4CCC(Nc5ccc(C(F)(F)F)cn5)CC4)cc3)cc2C1=O` [Example 1.038]: the IC50 fell in the range of 5 to 100 nM. `O=S(=O)(c1ccc(-c2cnc3[nH]ccc3c2)cc1)N1CCC(Nc2ccc(C(F)(F)F)cn2)CC1` [Example 1.089]: the IC50 was below 5 nM.

Turning to `N#Cc1c[nH]c2ccc(-c3ccc(S(=O)(=O)N4CCC(Nc5ccc(C(F)(F)F)cn5)CC4)cc3)cc12` [Example 1.114], the IC50 is below 5 nM.

Turning to `CC(C)(C)OC(=O)N1CCC=C(c2ccc(S(=O)(=O)N3CCC(Nc4ccc(C(F)(F)F)cn4)CC3)cc2)C1` [Example 1.233], the IC50 lay in the range of 5 to 100 nM. With `Cn1nc(C(N)=O)c2cc(-c3ccc(S(=O)(=O)N4CCC(Nc5ccc(C(F)(F)F)cn5)CC4)cc3)ccc21` [Example 1.090], the IC50 is below 5 nM. As for `CN(C)CCn1cc(C#N)c2cc(-c3ccc(S(=O)(=O)N4CCC(Nc5ccc(C(F)(F)F)cn5)CC4)cc3)cnc21` [Example 1.001], the IC50 lay within 5 to 100 nM. Turning to `Nc1n[nH]c2ncc(-c3ccc(S(=O)(=O)N4CCC(Nc5ccc(C(F)(F)F)cn5)CC4)cc3)nc12` [Example 1.017], the IC50 fell in the range of 5 to 100 nM. With `O=C1NC[C@@H]2CCN(c3ccc(S(=O)(=O)N4CCC(Nc5ccc(C(F)(F)F)cn5)CC4)cc3)C[C@H]12` (racemic) [Example 1.169], the IC50 lay in the range of 100 to 10000 nM. `N#CC1CCN(c2ccc(S(=O)(=O)N3CCC(Nc4ccc(C(F)(F)F)cn4)CC3)cc2)CC1` [Example 1.171]: the IC50 is 100 to 10000 nM. In the case of `CC(C)(C)OC(=O)N[C@@H]1CCCN(c2ccc(S(=O)(=O)N3CCC(Nc4ccc(C(F)(F)F)cn4)CC3)cc2)C1` [Example 1.213], the IC50 lay within 100 to 10000 nM.

As for `NC(=O)N1C[C@@H]2CN(c3ccc(S(=O)(=O)N4CCC(Nc5ccc(C(F)(F)F)cn5)CC4)cc3)C[C@@H]2C1` [Example 1.176], the IC50 lay within 5 to 100 nM.

In the case of `O=C1c2ccc(-c3ccc(S(=O)(=O)N4CCC(Nc5ccc(C(F)(F)F)cn5)CC4)cc3)cc2CN1CCO` [Example 1.021], the IC50 was in the range of 5 to 100 nM.

Consider `O=S(=O)(c1ccc(N2CCOCC2)cc1)N1CCC(Nc2ccc(C(F)(F)F)cn2)CC1` [Example 1.129], for which the IC50 fell in the range of 5 to 100 nM. For the molecule `O=C1Nc2ccc(-c3ccc(S(=O)(=O)N4CCC(Nc5ccc(C(F)(F)F)cn5)CC4)cc3)cc2C12CC2` [Example 1.051], the IC50 was below 5 nM.

`NC(=O)[C@H]1[C@@H]2CN(c3ccc(S(=O)(=O)N4CCC(Nc5ccc(C(F)(F)F)cn5)CC4)cc3)C[C@@H]21` [Example 1.162]: the IC50 was in the range of 100 to 10000 nM. In the case of `CN(C)C(=O)CC1CCN(c2ccc(S(=O)(=O)N3CCC(Nc4ccc(C(F)(F)F)cn4)CC3)cc2)CC1` [Example 1.134], the IC50 is 100 to 10000 nM.

For the molecule `CNC(=O)CC1CCN(c2ccc(S(=O)(=O)N3CCC(Nc4ccc(C(F)(F)F)cn4)CC3)cc2)CC1` [Example 1.135], the IC50 is 5 to 100 nM. Regarding `O=S(=O)(c1ccc(N2CCC(Nc3ccccc3)CC2)cc1)N1CCC(Nc2ccc(C(F)(F)F)cn2)CC1` [Example 1.220], the IC50 fell in the range of 5 to 100 nM. The result for `NC(=O)C1CC2(C1)CN(c1ccc(S(=O)(=O)N3CCC(Nc4ccc(C(F)(F)F)cn4)CC3)cc1)C2` [Example 1.121] reads 5 to 100 nM; that for `O=S(=O)(c1ccc(-c2cc3cc[nH]c3nc2F)cc1)N1CCC(Nc2ccc(C(F)(F)F)cn2)CC1` [Example 1.042], 5 to 100 nM; that for `COc1n[nH]c2ccc(-c3ccc(S(=O)(=O)N4CCC(Nc5ccc(C(F)(F)F)cn5)CC4)cc3)cc12` [Example 1.077], 5 to 100 nM. Turning to `NC(=O)CN1CCN(c2ccc(S(=O)(=O)N3CCC(Nc4ccc(C(F)(F)F)cn4)CC3)cc2)CC1` [Example 1.122], the IC50 was 5 to 100 nM. Turning to `O=C1CO[C@@H]2CCN(c3ccc(S(=O)(=O)N4CCC(Nc5ccc(C(F)(F)F)cn5)CC4)cc3)C[C@@H]2N1` (racemic) [Example 1.170], the IC50 fell in the range of 100 to 10000 nM.

For `O=S(=O)(c1ccc(-c2nc3c(s2)CNCC3)cc1)N1CCC(Nc2ccc(C(F)(F)F)cn2)CC1` [Example 1.106], the IC50 lay within 100 to 10000 nM. `O=S(=O)(c1ccc(N2CCC[C@@H](O)C2)cc1)N1CCC(Nc2ccc(C(F)(F)F)cn2)CC1` [Example 1.185]: the IC50 was in the range of 5 to 100 nM. Take `N#Cc1n[nH]c2c1CN(c1ccc(S(=O)(=O)N3CCC(Nc4ccc(C(F)(F)F)cn4)CC3)cc1)CC2` [Example 1.207]: the IC50 lay within 100 to 10000 nM. For the molecule `CS(=O)(=O)N1CCCN(c2ccc(S(=O)(=O)N3CCC(Nc4ccc(C(F)(F)F)cn4)CC3)cc2)CC1` [Example 1.199], the IC50 lay in the range of 100 to 10000 nM. For `O=C1CN(c2ccc(S(=O)(=O)N3CCC(Nc4ccc(C(F)(F)F)cn4)CC3)cc2)CCN1` [Example 1.211], the IC50 is 100 to 10000 nM. In the case of `O=C1Cc2ncc(-c3ccc(S(=O)(=O)N4CCC(Nc5ccc(C(F)(F)F)cn5)CC4)cc3)cc2N1` [Example 1.022], the IC50 was 5 to 100 nM. For `NC(=O)c1ccc(-c2ccc(S(=O)(=O)N3CCC(Nc4ccc(C(F)(F)F)cn4)CC3)cc2)c2cc[nH]c12` [Example 1.061], the IC50 was in the range of 5 to 100 nM. Take `O=c1[nH]c(=O)c2ccc(-c3ccc(S(=O)(=O)N4CCC(Nc5ccc(C(F)(F)F)cn5)CC4)cc3)cc2[nH]1` [Example 1.057]: the IC50 is 5 to 100 nM. For `CC(C)(O)OC(=O)N1CCC2(CC1)C(=O)Nc1ccc(-c3ccc(S(=O)(=O)N4CCC(Nc5ccc(C(F)(F)F)cn5)CC4)cc3)cc12` [Example 1.044], the IC50 lay in the range of 5 to 100 nM. For the molecule `O=C(CC1CCN(c2ccc(S(=O)(=O)N3CCC(Nc4ccc(C(F)(F)F)cn4)CC3)cc2)CC1)NCCO` [Example 1.133], the IC50 was in the range of 100 to 10000 nM.

For `NC(=O)N1CCC(c2ccc(S(=O)(=O)N3CCC(Nc4ccc(C(F)(F)F)cn4)CC3)cc2)CC1` [Example 1.216], the IC50 is 5 to 100 nM.

For `O=C1Nc2ccc(-c3ccc(S(=O)(=O)N4CCC(Nc5ccc(C(F)(F)F)cn5)CC4)cc3)cc2C12CCOCC2` [Example 1.036], the IC50 was below 5 nM. In the case of `O=S(=O)(c1ccc(N2CCC(O)(CO)CC2)cc1)N1CCC(Nc2ccc(C(F)(F)F)cn2)CC1` [Example 1.168] it was 5 to 100 nM; in that of `CS(=O)(=O)NC1CCN(c2ccc(S(=O)(=O)N3CCC(Nc4ccc(C(F)(F)F)cn4)CC3)cc2)CC1` [Example 1.206], 5 to 100 nM; in that of `O=c1[nH]c2cc(-c3ccc(S(=O)(=O)N4CCC(Nc5ccc(C(F)(F)F)cn5)CC4)cc3)ccc2o1` [Example 1.082], 5 to 100 nM.

`O=C1Cc2cc(-c3ccc(S(=O)(=O)N4CCC(Nc5ccc(C(F)(F)F)cn5)CC4)cc3)cc(C(=O)O)c2N1` [Example 1.008]: the IC50 is 100 to 10000 nM. Regarding `O=S(=O)(c1ccc(C2CCCNC2)cc1)N1CCC(Nc2ccc(C(F)(F)F)cn2)CC1` (centres unmarked) [Example 1.225], the IC50 fell in the range of 100 to 10000 nM. For `NC(=O)CN1Cc2ccc(-c3ccc(S(=O)(=O)N4CCC(Nc5ccc(C(F)(F)F)cn5)CC4)cc3)cc2C1=O` [Example 1.040], the IC50 lay in the range of 5 to 100 nM.

On to `NC(=O)N[C@H]1CCN(c2ccc(S(=O)(=O)N3CCC(Nc4ccc(C(F)(F)F)cn4)CC3)cc2)C1` [Example 1.190], for which the IC50 lay in the range of 100 to 10000 nM. Regarding `CC1(O)CCN(c2ccc(S(=O)(=O)N3CCC(Nc4ccc(C(F)(F)F)cn4)CC3)cc2)CC1` [Example 1.182], the IC50 was 5 to 100 nM. On to `O=S(=O)(c1ccc(N2CC[C@H](O)[C@@H](CO)C2)cc1)N1CCC(Nc2ccc(C(F)(F)F)cn2)CC1` [Example 1.181], for which the IC50 lay within 5 to 100 nM. As for `NC(=O)C1CCCN(c2ccc(S(=O)(=O)N3CCC(Nc4ccc(C(F)(F)F)cn4)CC3)cc2)C1` (centres unmarked) [Example 1.230], the IC50 was 5 to 100 nM. In the case of `O=C1CC2(CCN(c3ccc(S(=O)(=O)N4CCC(Nc5ccc(C(F)(F)F)cn5)CC4)cc3)CC2)C(=O)N1` [Example 1.149] it was 5 to 100 nM. In the case of `O=S(=O)(c1ccc(-c2ccc3c(c2)C2(CCOCC2)CN3)cc1)N1CCC(Nc2ccc(C(F)(F)F)cn2)CC1` [Example 1.034] it was 5 to 100 nM; in that of `Nc1nc2cc(-c3ccc(S(=O)(=O)N4CCC(Nc5ccc(C(F)(F)F)cn5)CC4)cc3)ccc2o1` [Example 1.118], below 5 nM.

In the case of `NCCN1C(=O)C2(CC2)c2cc(-c3ccc(S(=O)(=O)N4CCC(Nc5ccc(C(F)(F)F)cn5)CC4)cc3)cnc21` [Example 1.002], the IC50 lay in the range of 5 to 100 nM. In the case of `N#Cc1ccc2nc(-c3ccc(S(=O)(=O)N4CCC(Nc5ccc(C(F)(F)F)cn5)CC4)cc3)sc2c1` [Example 1.060] it was 5 to 100 nM.
